Active and inactive are the calls of the source. The rule behind the calls is not given here.
Test system: CCRIS mutagenicity, Ames/micronucleus/aberration tests
Assay: CCRIS mutagenicity studies
[1] = Test System: AMES SALMONELLA TYPHIMURIUM, Strain/Indicator: TA97, Metabolic Activation: NONE, Method: PREINCUBATION
[2] = Test System: AMES SALMONELLA TYPHIMURIUM, Strain/Indicator: TA98, Metabolic Activation: NONE, Method: PREINCUBATION
[3] = Test System: AMES SALMONELLA TYPHIMURIUM, Strain/Indicator: TA100, Metabolic Activation: NONE, Method: PREINCUBATION
[4] = Test System: AMES SALMONELLA TYPHIMURIUM, Strain/Indicator: TA1535, Metabolic Activation: NONE, Method: PREINCUBATION
[5] = Test System: AMES SALMONELLA TYPHIMURIUM, Strain/Indicator: TA98, Metabolic Activation: NONE, Method: STANDARD PLATE
[6] = Test System: AMES SALMONELLA TYPHIMURIUM, Strain/Indicator: TA100, Metabolic Activation: NONE, Method: STANDARD PLATE
[7] = Test System: AMES SALMONELLA TYPHIMURIUM, Strain/Indicator: TA98, Metabolic Activation: RAT, LIVER, S-9, AROCLOR 1254, Method: STANDARD PLATE
[8] = Test System: AMES SALMONELLA TYPHIMURIUM, Strain/Indicator: TA100, Metabolic Activation: RAT, LIVER, S-9, AROCLOR 1254, Method: STANDARD PLATE
[9] = Test System: AMES SALMONELLA TYPHIMURIUM, Strain/Indicator: TA1535, Metabolic Activation: NONE, Method: STANDARD PLATE
[10] = Test System: AMES SALMONELLA TYPHIMURIUM, Strain/Indicator: TA1535, Metabolic Activation: RAT, LIVER, S-9, AROCLOR 1254, Method: STANDARD PLATE
[11] = Test System: AMES SALMONELLA TYPHIMURIUM, Strain/Indicator: TA1537, Metabolic Activation: NONE, Method: STANDARD PLATE
[12] = Test System: AMES SALMONELLA TYPHIMURIUM, Strain/Indicator: TA1538, Metabolic Activation: NONE, Method: STANDARD PLATE
[13] = Test System: AMES SALMONELLA TYPHIMURIUM, Strain/Indicator: TA1538, Metabolic Activation: RAT, LIVER, S-9, AROCLOR 1254, Method: STANDARD PLATE

For `Nc1cc(N)c(N=Nc2ccc(S(=O)(=O)O)cc2S(=O)(=O)O)cc1N=Nc1ccc(-c2ccc(N/N=C3\C=CC(=O)C(C(=O)O)=C3)cc2)cc1`, the mutagenic call (Test System: AMES SALMONELLA TYPHIMURIUM, Strain/Indicator: TA98, Metabolic Activation: HAMSTER, LIVER, S-9, Method: PREINCUBATION (PRIVAL METHOD)) was “active; positive”.
For `N#CCO`, the mutagenic call (Test System: AMES SALMONELLA TYPHIMURIUM, Strain/Indicator: TA97, Metabolic Activation: HAMSTER, LIVER, S-9, AROCLOR 1254 (10%), Method: PREINCUBATION) was “inactive; negative”, the mutagenic call (Test System: AMES SALMONELLA TYPHIMURIUM, Strain/Indicator: TA97, Metabolic Activation: HAMSTER, LIVER, S-9, AROCLOR 1254 (30%), Method: PREINCUBATION) was “inactive; negative” and the mutagenic call [1] was “inactive; negative”. The mutagenic call (Test System: AMES SALMONELLA TYPHIMURIUM, Strain/Indicator: TA97, Metabolic Activation: RAT, LIVER, S-9, AROCLOR 1254 (10 OR 30%), Method: PREINCUBATION) was “inactive; negative”, the mutagenic call (Test System: AMES SALMONELLA TYPHIMURIUM, Strain/Indicator: TA98, Metabolic Activation: HAMSTER, LIVER, S-9, AROCLOR 1254 (10%), Method: PREINCUBATION) was “inactive; negative” and the mutagenic call (Test System: AMES SALMONELLA TYPHIMURIUM, Strain/Indicator: TA98, Metabolic Activation: HAMSTER, LIVER, S-9, AROCLOR 1254 (30%), Method: PREINCUBATION) was “inactive; negative”. For the same compound, the mutagenic call [2] was “inactive; negative”, the mutagenic call (Test System: AMES SALMONELLA TYPHIMURIUM, Strain/Indicator: TA98, Metabolic Activation: RAT, LIVER, S-9, AROCLOR 1254 (10%), Method: PREINCUBATION) was “inactive; negative” and the mutagenic call (Test System: AMES SALMONELLA TYPHIMURIUM, Strain/Indicator: TA98, Metabolic Activation: RAT, LIVER, S-9, AROCLOR 1254 (30%), Method: PREINCUBATION) was “inactive; negative”. The mutagenic call (Test System: AMES SALMONELLA TYPHIMURIUM, Strain/Indicator: TA100, Metabolic Activation: HAMSTER, LIVER, S-9, AROCLOR 1254 (10%), Method: PREINCUBATION) was “inactive; negative”, the mutagenic call (Test System: AMES SALMONELLA TYPHIMURIUM, Strain/Indicator: TA100, Metabolic Activation: HAMSTER, LIVER, S-9, AROCLOR 1254 (30%), Method: PREINCUBATION) was “inactive; negative” and the mutagenic call [3] was “inactive; negative”. For the same compound, the mutagenic call (Test System: AMES SALMONELLA TYPHIMURIUM, Strain/Indicator: TA100, Metabolic Activation: RAT, LIVER, S-9, AROCLOR 1254 (10%), Method: PREINCUBATION) was “inactive; negative”, the mutagenic call (Test System: AMES SALMONELLA TYPHIMURIUM, Strain/Indicator: TA100, Metabolic Activation: RAT, LIVER, S-9, AROCLOR 1254 (30%), Method: PREINCUBATION) was “inactive; negative” and the mutagenic call (Test System: AMES SALMONELLA TYPHIMURIUM, Strain/Indicator: TA1535, Metabolic Activation: HAMSTER, LIVER, S-9, AROCLOR 1254 (10%), Method: PREINCUBATION) was “inactive; negative”. The mutagenic call (Test System: AMES SALMONELLA TYPHIMURIUM, Strain/Indicator: TA1535, Metabolic Activation: HAMSTER, LIVER, S-9, AROCLOR 1254 (30%), Method: PREINCUBATION) was “inactive; negative”, the mutagenic call [4] was “inactive; negative” and the mutagenic call (Test System: AMES SALMONELLA TYPHIMURIUM, Strain/Indicator: TA1535, Metabolic Activation: RAT, LIVER, S-9, AROCLOR 1254 (10%), Method: PREINCUBATION) was “inactive; negative”. For the same compound, the mutagenic call (Test System: AMES SALMONELLA TYPHIMURIUM, Strain/Indicator: TA1535, Metabolic Activation: RAT, LIVER, S-9, AROCLOR 1254 (30%), Method: PREINCUBATION) was “inactive; negative”.
With `Cc1c2c3ccccc3nc-2n(C)c2ccccc12` the mutagenic call (Test System: AMES SALMONELLA TYPHIMURIUM, Strain/Indicator: TA97, Metabolic Activation: RAT, LIVER, S-9, AROCLOR 1254, Method: STANDARD PLATE) was “active; positive” and the mutagenic call (Test System: AMES SALMONELLA TYPHIMURIUM, Strain/Indicator: TA102, Metabolic Activation: RAT, LIVER, S-9, AROCLOR 1254, Method: STANDARD PLATE) was “active; positive”.
For `Oc1cccc(O)c1O`, the mutagenic call (End Point: IN VITRO CHROMOSOMAL ABERRATIONS, Test System: V79 CELLS, Metabolic Activation: NONE) was “active; positive; active at higher levels at all ph values”, the mutagenic call [1] was “active; positive” and the mutagenic call (Test System: AMES SALMONELLA TYPHIMURIUM, Strain/Indicator: TA97, Metabolic Activation: RAT, LIVER, S-9, PHENOBARBITAL, Method: PREINCUBATION) was “active; positive”. The mutagenic call (Test System: AMES SALMONELLA TYPHIMURIUM, Strain/Indicator: TA98, Metabolic Activation: NONE) was “inactive; negative”, the mutagenic call [2] was “inactive; negative” and the mutagenic call [5] was “inactive; negative”. The mutagenic call (Test System: AMES SALMONELLA TYPHIMURIUM, Strain/Indicator: TA98, Metabolic Activation: RAT, LIVER, S-9, AROCLOR 1254, Method: PREINCUBATION) was “inactive; negative”, the mutagenic call (Test System: AMES SALMONELLA TYPHIMURIUM, Strain/Indicator: TA98, Metabolic Activation: RAT, LIVER, S-9, PHENOBARBITAL, Method: PREINCUBATION) was “active; positive” and the mutagenic call (Test System: AMES SALMONELLA TYPHIMURIUM, Strain/Indicator: TA98, Metabolic Activation: S-9) was “inactive; negative”. For the same compound, the mutagenic call (Test System: AMES SALMONELLA TYPHIMURIUM, Strain/Indicator: TA98, Metabolic Activation: S-9, Method: STANDARD PLATE) was “active; positive”, the mutagenic call [3] was “active; positive” and the mutagenic call [6] was “inactive; negative”. The mutagenic call (Test System: AMES SALMONELLA TYPHIMURIUM, Strain/Indicator: TA100, Metabolic Activation: RAT, LIVER, S-9, PHENOBARBITAL, Method: PREINCUBATION) was “active; positive”, the mutagenic call (Test System: AMES SALMONELLA TYPHIMURIUM, Strain/Indicator: TA100, Metabolic Activation: S-9, Method: STANDARD PLATE) was “active; positive” and the mutagenic call (Test System: AMES SALMONELLA TYPHIMURIUM, Strain/Indicator: TA102, Metabolic Activation: NONE, Method: STANDARD PLATE) was “active; positive”. The mutagenic call (Test System: AMES SALMONELLA TYPHIMURIUM, Strain/Indicator: TA102, Metabolic Activation: RAT, LIVER, S-9, AROCLOR 1254, Method: PREINCUBATION) was “inactive; negative”, the mutagenic call [4] was “inactive; negative” and the mutagenic call (Test System: AMES SALMONELLA TYPHIMURIUM, Strain/Indicator: TA1535, Metabolic Activation: RAT, LIVER, S-9, AROCLOR 1254, Method: PREINCUBATION) was “inactive; negative”. The mutagenic call (Test System: AMES SALMONELLA TYPHIMURIUM, Strain/Indicator: TA2638, Metabolic Activation: NONE, Method: STANDARD PLATE) was “active; positive”, the mutagenic call (Test System: E. COLI, Strain/Indicator: WP2 (PKM101), Metabolic Activation: NONE, Method: STANDARD PLATE) was “active; positive” and the mutagenic call (Test System: E. COLI, Strain/Indicator: WP2 UVRA (PKM101), Metabolic Activation: NONE, Method: STANDARD PLATE) was “active; positive”.
With `Clc1ncnc2nc[nH]c12` the mutagenic call [6] was “active; positive”.
In the case of `O=CC(O)C(O)C(O)CO` (centres undefined), the mutagenic call [5] is reported as “inactive; negative”, the mutagenic call [7] is reported as “inactive; negative” and the mutagenic call [6] is reported as “inactive; negative”. For the same compound, the mutagenic call [8] was “inactive; negative”, the mutagenic call [9] was “inactive; negative” and the mutagenic call [10] was “inactive; negative”. For the same compound, the mutagenic call [11] was “inactive; negative”, the mutagenic call (Test System: AMES SALMONELLA TYPHIMURIUM, Strain/Indicator: TA1537, Metabolic Activation: RAT, LIVER, S-9, AROCLOR 1254, Method: STANDARD PLATE) was “inactive; negative” and the mutagenic call [12] was “inactive; negative”. For the same compound, the mutagenic call [13] was “inactive; negative”, the mutagenic call (Test System: E. COLI, Strain/Indicator: WP2, Metabolic Activation: NONE, Method: STANDARD PLATE) was “inactive; negative” and the mutagenic call (Test System: E. COLI, Strain/Indicator: WP2, Metabolic Activation: RAT, LIVER, S-9, AROCLOR 1254, Method: STANDARD PLATE) was “inactive; negative”.
`Oc1ccc2c(O)c3ccccc3cc2c1O` was tested, and the mutagenic call [7] was “inactive; negative”, the mutagenic call [6] was “inactive; negative” and the mutagenic call [8] was “inactive; negative”. The mutagenic call [9] was “inactive; negative”, the mutagenic call [10] was “inactive; negative” and the mutagenic call [11] was “active; positive”. For the same compound, the mutagenic call [12] was “inactive; negative” and the mutagenic call [13] was “inactive; negative”.

Source: PubChem BioAssay AID1259407 (Chemical Carcinogenesis Research Information System (CCRIS), 2018)
